Assay results taken from patent US12419869B2, “Methods of treating multiple sclerosis” (Vanda Pharmaceuticals Inc., priority 2021, dated 2025).

What was measured:
Assay type in all cases: in vivo, human
[1] = tested on: adult subjects with relapsing MS; test: Treatment-emergent adverse events and premature treatment discontinuation, phase III study (Study 1); conditions: in vivo
Procedure: A total of 1438 MS patients have received PONVORY at doses of at least 2 mg daily. These patients were included in Study 1 (2-year active-controlled versus teriflunomide 14 mg) [see Clinical Studies (14)] and in a Phase 2 (6-month placebo-controlled) study in patients with MS and the uncontrolled extension studies.

[2] = tested on: adult subjects with relapsing MS; test: 12-lead ECG heart rate and AV conduction at treatment initiation (Day 1, ponesimod 2 mg)
Procedure: As per up-titration regimen, the dose of ponesimod on Day 1 is 2 mg.
The incidence of treatment-emergent heart rate and rhythm (including hypotension) AESIs on Day 1 was higher in the ponesimod 20 mg arm (2.1%) than in the teriflunomide 14 mg arm (0.4%). However, the overall incidence of first dose AESI on Day 1 was low (2.1%) in ponesimod. None of these events were serious nor led to permanent discontinuation of study treatment. Discharge criteria at 4 hours post-dose were met for ca. 99% of subjects. […] ECG HR effect: nadir at 2 hours post-dose (siponimod—3-4 hours, fingolimod—around by 6 hours). Low incidence of low HR outliers (post-dose HR 40 bpm), all 3 of them with a pre-treatment HR of <55 bpm, which is a known risk factor for post-dose bradycardia with SIP receptor modulators.
The mean heart rate reduction compared to pre-dose reached a maximum for ponesimod 20 mg at 2-hours post dose, −8.7 bpm compared to −1.7 bpm for teriflunomide 14 mg (FIG. 6).
Initiation of PONVORY may result in a transient decrease in HR. In Study 1, bradycardia at treatment initiation and sinus bradycardia on ECG (defined as HR less than 50 bpm) occurred in 5.8% of PONVORY-treated patients compared to 1.6% of patients receiving teriflunomide 14 mg. After the first titration dose of PONVORY, the decrease in heart rate typically begins within an hour and reaches its nadir within 2-4 hours. The heart rate typically recovers to baseline levels 4-5 hours after administration. The mean decrease in heart rate on Day 1 of dosing was 6 bpm. With up-titration after Day 1, the post-dose decrease in heart rate is less pronounced. […] On Day 1, 3 patients treated with PONVORY had asymptomatic post-dose HR below or equal to 40 bpm; all 3 patients had baseline HRs below 55 bpm.

[3] = tested on: adult subjects with relapsing MS; test: Pulmonary function (percent predicted FEV1), Study 1
Procedure: In Study 1, the reduction from baseline in percent predicted FEV1 at 2 years was 8.3% in PONVORY-treated patients compared to 4.4% in patients receiving teriflunomide 14 mg. In Study 1, 7 patients discontinued PONVORY because of pulmonary adverse events. There is insufficient information to determine the reversibility of the decrease in FEV1 or FVC after treatment discontinuation. PONVORY should be used with caution in patients with severe respiratory disease (i.e., pulmonary fibrosis, asthma, and chronic obstructive pulmonary disease). Spirometric evaluation of respiratory function should be performed during therapy with PONVORY if clinically indicated.

## CCC/N=C1\S/C(=C\c2ccc(OC[C@H](O)CO)c(Cl)c2)C(=O)N1c1ccccc1C [Ponesimod, (R)-5-[3-chloro-4-(2,3-dihydroxy-propoxy)-benz[Z]ylidene]-2-([Z]-propylimino)-3-o-tolyl-thiazolidin-4-one]
[1]; human
  Day 1 AESI Atrioventricular block first degree: (0.5) %
  Day 1 AESI Bradycardia: (0.7) %
  Day 1 AESI Bundle branch block left: (0.2) %
  Day 1 AESI Bundle branch block right: (0.2) %
  Day 1 AESI Defect conduction intraventricular: (0.4) %
  Day 1 AESI Sinus arrhythmia: (0.2) %
  Day 1 AESI Sinus bradycardia: (0.2) %
[1]; human, 2 year
  AE leading to discontinuation, SOC Blood and lymphatic system disorders: (0.5) %
  AE leading to discontinuation, SOC Cardiac disorders: (0.2) %
  AE leading to discontinuation, SOC Eye disorders: (0.9) %
  AE leading to discontinuation, SOC Gastrointestinal disorders: (0.7) %
  AE leading to discontinuation, SOC General disorders and administration site conditions: (0.5) %
  AE leading to discontinuation, SOC Hepatobiliary disorders: (0.5) %
  AE leading to discontinuation, SOC Investigations: (2.1) %
  AE leading to discontinuation, SOC Musculoskeletal and connective tissue disorders: (0.2) %
  AE leading to discontinuation, SOC Neoplasms benign, malignant and unspecified (incl cysts and polyps): (0.2) %
  AE leading to discontinuation, SOC Nervous system disorders: (0.4) %
  AE leading to discontinuation, SOC Pregnancy, puerperium and perinatal conditions: (0.5) %
  AE leading to discontinuation, SOC Psychiatric disorders: (0.2) %
  AE leading to discontinuation, SOC Respiratory, thoracic and mediastinal disorders: (1.2) %
  AE leading to discontinuation, SOC Skin and subcutaneous tissue disorders: (0.2) %
  AE leading to discontinuation, SOC Social circumstances: (0.4) %
  AE leading to discontinuation, SOC Vascular disorders: (0.5) %
  AESI Effect on heart rate and rhythm (including hypotension): (5.1) %
  AESI Non-skin malignancy: (0.2) %
  AESI Skin malignancy: (0.9) %
  Discontinuation reason: Physician decision, Adverse event: (5.1) %
  Discontinuation reason: Pre-specified study treatment discontinuation criteria: (2.1) %
  Discontinuation reason: Subject decision, Tolerability related: (1.4) %
  Incidence of basal cell carcinoma: 0.4%
  Overall rate of infections: 54.2%
  Subjects discontinued due to AEs or tolerability related reasons: 6.5%
  Subjects who prematurely discontinued study treatment: (16.6) %
  Subjects with at least one Drug-Related AE: (49.2) %
  Subjects with at least one Severe AE: (6.9) %
  TEAE ALT increased: 19.5%
  TEAE headache: 11.5%
  TEAE nasopharyngitis: 19.3%
  TEAE upper respiratory tract infection: 10.6%
[1]; human, 2 years
  Adverse reaction: C-reactive protein increased: 2%
  Adverse reaction: Cough: 4%
  Adverse reaction: Dizziness: 5%
  Adverse reaction: Dyspnea: 5%
  Adverse reaction: Hepatic transaminase elevation: 23%
  Adverse reaction: Hypercholesterolemia: 2%
  Adverse reaction: Hypertension: 10%
  Adverse reaction: Pain in extremity: 4%
  Adverse reaction: Pyrexia: 2%
  Adverse reaction: Somnolence: 3%
  Adverse reaction: Urinary tract infection: 6%
  Adverse reaction: Vertigo: 2%
[1]
  Discontinuation reason: Lost to follow-up: (0.4) %
  Discontinuation reason: Physician decision: (7.1) %
  Discontinuation reason: Physician decision, Lack of efficacy/treatment failure: (0.7) %
  Discontinuation reason: Physician decision, Other: (1.2) %
  Discontinuation reason: Reason not provided: (0.2) %
  Discontinuation reason: Subject decision: (6.9) %
  Discontinuation reason: Subject decision, Efficacy related: (1.2) %
  Discontinuation reason: Subject decision, Not known: (0.9) %
  Discontinuation reason: Subject decision, Other: (3.4) %
[2]; Day 1
  Mean heart rate change compared to pre-dose at 2 hours post dose (maximum): −8.7 bpm
  Subjects meeting discharge criteria at 4 hours post-dose: ca. 99%
  Subjects with asymptomatic post-dose HR ≤40 bpm: 3
  Time for heart rate to recover to baseline / pre-dose values: 4 to 5 h
[2]; Day 1, 2 mg
  ECG HR effect: time of nadir post-dose: 2 h
[2]; Study 1
  Bradycardia at treatment initiation and sinus bradycardia on ECG (HR less than 50 bpm): 5.8%
  First-degree AV block (prolonged PR interval on ECG): 3.4%
  Mean decrease in heart rate on Day 1 of dosing: 6 bpm
  Second- and third-degree AV blocks: not reported
[2]; post-dose
  Time to heart rate nadir / maximal effect after first dose: 2 to 4 h
[3]
  Patients who discontinued because of pulmonary adverse events: 7
  Reduction from baseline in percent predicted FEV1 at 2 years: 8.3%
